Results taken from patent US8501794B2, “Compounds as cannabinoid receptor ligands” (priority 2007, dated 2013).
pKi: −log10 of the molar value. Where two headings read alike, the source gives them in different places.

What was measured:
[1] = molecular target: T1, human CB2 receptors (Homo sapiens, UniProt P34972); assay: human CB2 radioligand binding assay ([3H]CP-55,940 competition)
T1 construct: expressed in transfected cells; host or cells: HEK293

[2] = molecular target: T2, rat CB2 (Rattus norvegicus, UniProt Q9QZN9); assay: rat CB2 radioligand binding assay ([3H]CP-55,940 competition); design: expressed in transfected cells; host or cells: HEK293
T2 sequence (Q9QZN9 1-360): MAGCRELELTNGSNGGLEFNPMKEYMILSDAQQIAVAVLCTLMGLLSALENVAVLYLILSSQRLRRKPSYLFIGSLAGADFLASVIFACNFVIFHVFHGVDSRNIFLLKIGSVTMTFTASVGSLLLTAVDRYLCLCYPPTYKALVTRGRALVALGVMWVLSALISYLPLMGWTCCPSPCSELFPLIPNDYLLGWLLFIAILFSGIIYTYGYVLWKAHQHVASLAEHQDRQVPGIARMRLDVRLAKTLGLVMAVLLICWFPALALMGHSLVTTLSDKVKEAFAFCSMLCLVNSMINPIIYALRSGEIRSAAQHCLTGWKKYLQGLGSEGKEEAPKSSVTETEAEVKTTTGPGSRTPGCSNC

[3] = HEK293 membranes, 0.5 nM [3H]CP-55,940, read-out: human CB2 (Ki)
[4] = HEK293 membranes, 0.5 nM [3H]CP-55,940, read-out: rat CB2 (Ki)

T1 sequence (P34972 whole entry): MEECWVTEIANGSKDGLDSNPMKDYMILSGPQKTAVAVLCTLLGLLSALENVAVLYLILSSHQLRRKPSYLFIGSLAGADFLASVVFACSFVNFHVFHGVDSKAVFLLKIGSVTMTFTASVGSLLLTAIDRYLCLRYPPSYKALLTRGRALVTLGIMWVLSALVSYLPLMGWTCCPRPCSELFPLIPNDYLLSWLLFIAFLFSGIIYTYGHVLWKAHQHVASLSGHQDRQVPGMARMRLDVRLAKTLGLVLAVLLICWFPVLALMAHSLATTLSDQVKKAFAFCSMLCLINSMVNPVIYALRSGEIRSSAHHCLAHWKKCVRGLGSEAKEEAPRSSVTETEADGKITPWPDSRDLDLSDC

SMILES	pKi [1]	pKi [2]	pKi [1, 3]	pKi [2, 4]
CCCCc1cn(C(C)(C)C)s/c1=N\C(=O)[C@]1(C)CC[C@H](C(=O)NC[C@@H]2CCCO2)C1(C)C [Example 226, (1R,3S)—N^1-[(5Z)-4-butyl-2-tert-butylisothiazol-5(2H)-ylidene]-1,2,2-trimethyl-N^3-[(2S)-tetrahydrofuran-2-ylmethyl]cyclopentane-1,3-dicarboxamide]	6.60	6.88		
CCCCc1cn(C(C)(C)C)s/c1=N\C(=O)[C@@]1(C)CC[C@@H](C2=NCCO2)C1(C)C [Example 231, (1S,3R)—N-[(5Z)-4-butyl-2-tert-butylisothiazol-5(2H)-ylidene]-3-(4,5-dihydro-1,3-oxazol-2-yl)-1,2,2-trimethylcyclopentanecarboxamide]	7.29	7.96		
CCCCc1cn(C(C)(C)C)s/c1=N\C(=O)[C@H]1CC[C@@](C)(C2=NCCO2)C1(C)C [Example 232, (1S,3R)—N-[(5Z)-4-butyl-2-tert-butylisothiazol-5(2H)-ylidene]-3-(4,5-dihydro-1,3-oxazol-2-yl)-2,2,3-trimethylcyclopentanecarboxamide]	7.35	7.74		
CCCCc1cn(C(C)(C)C)s/c1=N\C(=O)[C@]1(C)CC[C@H](C(=O)NCc2ccccn2)C1(C)C [Example 234, (1R,3S)—N^1-[(5Z)-4-butyl-2-tert-butylisothiazol-5(2H)-ylidene]-1,2,2-trimethyl-N^3-(pyridin-2-ylmethyl)cyclopentane-1,3-dicarboxamide]			6.49	6.85
CCCCc1cn(C(C)(C)C)s/c1=N\C(=O)[C@]1(C)CC[C@H](C(=O)NCc2cccnc2)C1(C)C [Example 235, (1R,3S)—N^1-[(5Z)-4-butyl-2-tert-butylisothiazol-5(2H)-ylidene]-1,2,2-trimethyl-N^3-(pyridin-3-ylmethyl)cyclopentane-1,3-dicarboxamide]			6.49	6.59
C#CCNC(=O)[C@H]1CC[C@@](C)(C(=O)/N=c2\sn(C(C)(C)C)cc2CCCC)C1(C)C [Example 237, (1R,3S)—N^1-[(5Z)-4-butyl-2-tert-butylisothiazol-5(2H)-ylidene]-1,2,2-trimethyl-N^3-prop-2-ynylcyclopentane-1,3-dicarboxamide]	7.64	7.74		
CCCCc1cn(C(C)(C)C)s/c1=N\C(=O)[C@]1(C)CC[C@H](C(=O)NCC(F)(F)F)C1(C)C [Example 238, (1R,3S)—N^1-[(5Z)-4-butyl-2-tert-butylisothiazol-5(2H)-ylidene]-1,2,2-trimethyl-N^3-(2,2,2-trifluoroethyl)cyclopentane-1,3-dicarboxamide]	7.64	7.85		
C#CCNC(=O)[C@@H]1CC[C@](C)(C(=O)/N=c2\sn(C(C)(C)C)cc2CCCC)C1(C)C [Example 239, (1S,3R)—N^1-[(5Z)-4-butyl-2-tert-butylisothiazol-5(2H)-ylidene]-1,2,2-trimethyl-N^3-prop-2-ynylcyclopentane-1,3-dicarboxamide]	7.14	7.15		
CCCCc1cn(C(C)(C)C)s/c1=N\C(=O)[C@]1(C)CC[C@H](C(=O)N(C)OC)C1(C)C [Example 241, (1R,3S)—N^1-[(5Z)-4-butyl-2-tert-butylisothiazol-5(2H)-ylidene]-N^3-methoxy-N^3,1,2,2-tetramethylcyclopentane-1,3-dicarboxamide]	7.70	7.62		
CCCCc1cn(C(C)(C)C)s/c1=N\C(=O)[C@]1(C)CC[C@H](C2=NCCCO2)C1(C)C [Example 243, (1R,3S)—N-[(5Z)-4-butyl-2-tert-butylisothiazol-5(2H)-ylidene]-3-(5,6-dihydro-4H-1,3-oxazin-2-yl)-1,2,2-trimethylcyclopentanecarboxamide]	7.39	7.85		
CCCCc1cn(C(C)(C)C)s/c1=N\C(=O)[C@]1(C)CC[C@H](NC(=O)N2CCCC2)C1(C)C [Example 244, N-[(1S,3R)-3-({[(5Z)-4-butyl-2-tert-butylisothiazol-5(2H)-ylidene]amino}carbonyl)-2,2,3-trimethylcyclopentyl]pyrrolidine-1-carboxamide]	7.38			6.82
CCCCc1cn(C(C)(C)C)s/c1=N\C(=O)[C@@H]1CC[C@](C)(NC(N)=O)C1(C)C [Example 246, (1R,3S)-3-[(aminocarbonyl)amino]-N-[(5Z)-4-butyl-2-tert-butylisothiazol-5(2H)-ylidene]-2,2,3-trimethylcyclopentanecarboxamide]		7.42	6.82	
CCCCc1cn(C(C)(C)C)s/c1=N\C(=O)[C@@H]1CC[C@](C)(NC(=O)NC)C1(C)C [Example 247, (1R,3S)—N-[(5Z)-4-butyl-2-tert-butylisothiazol-5(2H)-ylidene]-2,2,3-trimethyl-3-{[(methylamino)carbonyl]amino}cyclopentanecarboxamide]	7.39	7.40		
CCCCc1cn(C(C)(C)C)s/c1=N\C(=O)[C@]1(C)CC[C@H](C(=O)NN2CCCC2)C1(C)C [Example 249, (1R,3S)—N^1-[(5Z)-4-butyl-2-tert-butylisothiazol-5(2H)-ylidene]-1,2,2-trimethyl-N^3-pyrrolidin-1-ylcyclopentane-1,3-dicarboxamide]			6.96	6.49
CCCCc1cn(C(C)(C)C)s/c1=N\C(=O)[C@]1(C)CC[C@H](NC(=O)N2CCOCC2)C1(C)C [Example 250, N-[(1S,3R)-3-({[(5Z)-4-butyl-2-tert-butylisothiazol-5(2H)-ylidene]amino}carbonyl)-2,2,3-trimethylcyclopentyl]morpholine-4-carboxamide]	7.32	7.12		
CCCCc1cn(C(C)(C)C)s/c1=N\C(=O)[C@]1(C)CC[C@H](NC(=O)c2ccccc2)C1(C)C [Example 251, N-[(1S,3R)-3-({[(5Z)-4-butyl-2-tert-butylisothiazol-5(2H)-ylidene]amino}carbonyl)-2,2,3-trimethylcyclopentyl]benzamide]	7.22	7.22		
CCCCc1cn(C(C)(C)C)s/c1=N\C(=O)[C@]1(C)CC[C@H](NC(=O)NC)C1(C)C [Example 252, (1R,3S)—N-[(5Z)-4-butyl-2-tert-butylisothiazol-5(2H)-ylidene]-1,2,2-trimethyl-3-{[(methylamino)carbonyl]amino}cyclopentanecarboxamide]	8.21	7.73		
CCCCc1cn(C(C)(C)C)s/c1=N\C(=O)[C@@]1(C)CC[C@@H](NC(N)=O)C1(C)C [Example 253, (1S,3R)-3-[(aminocarbonyl)amino]-N-[(5Z)-4-butyl-2-tert-butylisothiazol-5(2H)-ylidene]-1,2,2-trimethylcyclopentanecarboxamide]	6.80	7.35		
CCCCc1cn(C(C)(C)C)s/c1=N\C(=O)[C@@]1(C)CC[C@@H](NC(=O)NC)C1(C)C [Example 254, (1S,3R)—N-[(5Z)-4-butyl-2-tert-butylisothiazol-5(2H)-ylidene]-1,2,2-trimethyl-3-{[(methylamino)carbonyl]amino}cyclopentanecarboxamide]	7.08			6.97
CCCCc1cn(C(C)(C)C)s/c1=N\C(=O)[C@@]1(C)CC[C@@H](NC(=O)c2ccccc2)C1(C)C [Example 255, N-[(1R,3S)-3-({[(5Z)-4-butyl-2-tert-butylisothiazol-5(2H)-ylidene]amino}carbonyl)-2,2,3-trimethylcyclopentyl]benzamide]	7.60	7.16		
